Test results: patent publication US9752168B2, “Compositions comprising a polypeptide having cellulolytic enhancing activity and a quinone compound and uses thereof” (priority 2010, dated 2017)
Read-outs that look alike come from different tables or passages of the source.

How the values were obtained:
[1] = test system: Trichoderma reesei cellulase composition; experiment: Hydrolysis of AVICEL® (microcrystalline cellulose) by the T. reesei cellulase composition; conditions: for quinone compound effect(no GH61) (ratio, Equation 2): AVICEL®; for Percent conversion of AVICEL®: no quinone compound, cellulase 4 mg protein/g cellulose, GH61 polypeptide where present 0.4 mg/g cellulose (10% w/w of cellulase)
[2] = test system: Trichoderma reesei cellulase composition; conditions: milled unwashed PCS; 5 mM quinone; 1, 3, and 7 days (white bars)
[3] = test system: Trichoderma reesei cellulase composition; conditions: milled washed PCS; 10 mM quinone; 1 and 3 days; cellulase 2 mg per g cellulose
[4] = test system: T. reesei cellulase composition; experiment: Enhancement of microcrystalline cellulose cellulolysis by the T. reesei cellulase composition using combinations of compounds and various GH61 polypeptides; conditions: mixtures of compounds at 3 mM

COC1=C(OC)C(=O)C(C)=CC1=O
quinone compound effect(no GH61) (ratio, Equation 2) ([1]; 5 mM quinone, day 3 and 7): less than 1 | quinone compound effect(no GH61) (ratio, Equation 2) ([1]; 10 mM quinone, 1 and 3 days): less than 1 | quinone compound effect(no GH61) (ratio, Equation 2) [2]: greater than 1 | quinone compound effect(no GH61) (ratio, Equation 2) [3]: less than 1

B1: A. fumigatus GH61B polypeptide: GH61 polypeptide having cellulolytic enhancing activity (SEQ ID NO: 30), recombinantly prepared according to WO 2010/138754 (protein, listed as Aspergillus fumigatus)
chain: MTLSKITSIAGLLASASLVAGHGFVSGIVADGKYYGGYLVNQYPYMSNPPDTIAWSTTATDLGFVDGTGYQSPDIICHRDAKNGKLTATVAAGSQIEFQWTTWPESHHGPLITYLAPCNGDCATVDKTTLKFVKIAAQGLIDGSNPPGVWADDEMIANNNTATVTIPASYAPGNYVLRHEIIALHSAGNLNGAQNYPQCFNIQITGGGSAQGSGTAGTSLYKNTDPGIKFDIYSDLSGGYPIPGPALFNA
Percent conversion of AVICEL® ([1]; 1 day): 13.7±0.2% | Percent conversion of AVICEL® ([1]; 3 days): 29±1% | Percent conversion of AVICEL® ([1]; 7 days): 46±2% | overall conversion of AVICEL®, comparison among GH61 polypeptides [4]: highest overall conversion
